Bridge positions count the residues as written; N and C are the ends. Square brackets hold non-standard residues; d marks the D form. Peptide text beside a SMILES is read from it. NMeL = CN[C@@H](CC(C)C)C(=O)O; Phg = N[C@H](C(=O)O)c1ccccc1; NMeV = CN[C@H](C(=O)O)C(C)C; Aib = CC(C)(N)C(=O)O
Each molecule was assayed against ACA-6501 (assay: Competitive binding peptide ACA ELISA, cardiolipin/β2-GPI-coated plates). Details: Optimization of Peptide 3G3; inf = no 50% inhibition.
Set-up: species or system human
Procedure: A variation of this assay uses microtitration plates coated with human β2-glycoprotein I/cardiolipin (β2-GPI/CL) instead of tetravalent peptide and tests the ability of monomeric peptides to block the binding of aPL antibody to the epitope(s) on β2-GPI/CL. In this assay, IgG-depleted human serum at an optimized concentration is used as a source of β2-GPI. The monomeric peptides at several concentrations are incubated with an optimized concentration of aPL antibody in a manner analogous to the assay which employs tetravalent peptide as a plate substrate. Following the incubation of aPL/peptide in (β2-GPI/CL) plates, antibody binding and the peptide concentration required for 50% inhibition is determined at half-maximal absorbance as in the tetravalent assay.
Peptide sequences for all five peptides immediately follow the table. All were tested using the competitive binding peptide ACA ELISA using CL/β2-GPI plates as described herein.
(B) Immulon I® 96-well, flat-bottom, polystyrene microtitration plates (Dynatech Laboratories, Inc., Chantilly, Va.) were coated with 30 μL/well of cardiolipin (CL, 50 μg; Sigma Chemical Co., St. Louis, Mo.) in ethanol. Two control wells received 30 μL ethanol only. After overnight evaporation at 4° C., each well was blocked with 200 μL of 5% (w/v) fish gelatin in PBS for 2 hours at RT.
During this incubation, variable amounts of each of six peptides were mixed with 22 μL ACA-6501 serum diluted with 3% fish gelatin in 1:1 TBS/PBS (final dilution of 1:400) in a final volume of 220 μL using Eppendorf microcentrifuge tubes. Specifically, in tube #1 were mixed 181.3 μL of 3% fish gelatin in TBS-PBS, 16.7 μL of peptide stock solution plus 22 μL of ACA-6501 serum diluted 40 times in 3% fish gelatin/TBS-PBS. Stock solutions ranged from 450-800 μg/mL for peptides #951 (diserine non-cyclized negative control), #952 (a lot of LJP 690), and thioethers CCTE-3G3, CHTE-3G3, HCTE-3G3 and HHTE-3G3. To tube #2 the following were added: 148 μL fish gelatin/TBS-PBS, […] of peptide stock solution, plus 22 μL of 40 times diluted ACA-6501 serum. Tube #3 contained 48 μL fish gelatin/TBS-PBS, […] of peptide stock solution, plus 22 μL of 40 times diluted ACA-6501 serum. The control tube #4 received 396 μL fish gelatin/TBS-PBS and 44 μL of 40 times diluted ACA-6501 serum (no peptide). Each of the tubes incubated for approximately 1 hour at RT.
The CL/β2-GPI microtitration plate was washed 5 times with TBS and 100 μL aliquots in duplicate from Eppendorf tubes #1, 2, 3, and 4 containing the antibody-peptide (or no peptide mixtures) were added to the wells. A volume of 100 μL from tube #4 was added to the duplicate control wells containing no cardiolipin. The microtitration plate was incubated for 1 hour at RT with agitation at 40 rpm in an orbital shaker (American Scientific, Rotator V), washed 5 times with TBS and then 100 μL of 1:1000 goat anti-human IgG alkaline phosphatase conjugate (Zymed, Cat No. 62-8422) in 0.5% (w/v) BSA-TBS was added. Following incubation for 1 hour at RT, the microtitration plate was again washed 5 times with TBS and the colorimetric enzyme detection developed by adding 100 μL of PMPP solution (7.8 g phenolphthalein monophosphate plus 69.5 g of 2-amino-2-methyl-1-propanol in 100 mL water stock solution diluted 1:26 with water). After 21 minutes, the reaction was stopped by adding 50 μL of 0.2 M Na2HPO4 (Mallinckrodt) to each well. Absorbance at 550 nm was read in a microplate reader (Bio-Tek Instruments, Model EL 311). The amount of peptide that inhibited ACA-6501 binding by 50%, the IC50, was calculated from the graph at the intersection of half-maximal absorbance with amount of peptide added.

CC(C)C[C@@H]1NC(=O)[C@H](CCCCN)NC(=O)CNC(=O)[C@H](CC(C)C)N(C)C(=O)[C@H](C(C)C)NC(=O)CNC(=O)[C@H](CC(C)C)NC(=O)[C@@H](N)CSSC[C@@H](C(=O)O)NC1=O [C L G V nL G K L C] (H-CLGV[NMeL]GKLC-OH; disulfide 1-9) and CC(C)C[C@@H]1NC(=O)[C@@H](NC(=O)[C@@H]2CCCN2C(=O)CN)CSSC[C@@H](C(=O)N2CCC[C@H]2C(=O)NCC(=O)O)NC(=O)[C@H](CC(C)C)NC(=O)[C@H](CCCCN)NC(=O)CNC(=O)[C@H](CC(C)C)NC(=O)[C@H](C(C)C)NC(=O)CNC1=O [G P C L G V L G K L C P G] (H-GPCLGVLGKLCPG-OH; disulfide 3-11) are the same in “with ACA 6501 150 ug/mL” value: 180 µg/mL for the first, 180 µg/mL for the second.

CC(C)C[C@@H]1NC(=O)[C@H](CCCNC(=N)N)NC(=O)CNC(=O)[C@H](CC(C)C)NC(=O)[C@H](C(C)C)NC(=O)CNC(=O)[C@H](CC(C)C)NC(=O)[C@@H](N)CSSC[C@@H](C(=O)O)NC1=O [C L G V L G R L C] (H-CLGVLGRLC-OH; disulfide 1-9) and CC(C)C[C@@H]1NC(=O)[C@H](CCCCN)NC(=O)CNC(=O)[C@H](CC(C)C)NC(=O)[C@H](C(C)C)NC(=O)[C@H](C)NC(=O)[C@H](CC(C)C)NC(=O)[C@@H](N)CSSC[C@@H](C(=O)O)NC1=O [C L A V L G K L C] (H-CLAVLGKLC-OH; disulfide 1-9) are within 1.5-fold of each other in “with ACA 6501 150 ug/mL” value: 160 µg/mL for the first, 170 µg/mL for the second.

Compared with CC(C)C[C@@H]1NC(=O)[C@@H](NC(=O)[C@@H]2CCCN2C(=O)CNC(=O)[C@H](C)N)CSSC[C@@H](C(=O)NCC(=O)O)NC(=O)[C@H](CC(C)C)NC(=O)[C@H](CCCCN)NC(=O)CNC(=O)[C@H](CC(C)C)NC(=O)[C@H](C(C)C)NC(=O)CNC1=O [A G P C L G V L G K L C G] (H-AGPCLGVLGKLCG-OH; disulfide 4-12), CC(C)C[C@@H]1NC(=O)[C@H](C(C)C)NC(=O)CNC(=O)[C@H](CC(C)C)NC(=O)[C@@H](N)CSSC[C@@H](C(=O)O)NC(=O)[C@H](CC(C)C)NC(=O)[C@@H]2CCCN2C(=O)CNC1=O [C L G V L G P L C] (H-CLGVLGPLC-OH; disulfide 1-9) is 2.8-fold lower in “with ACA 6501 150 ug/mL” value: 450 µg/mL for the first, 160 µg/mL for the second.

CC(C)C[C@@H]1NC(=O)[C@H](CCCCN)NC(=O)CNC(=O)[C@@H](CC(C)C)NC(=O)[C@H](C(C)C)NC(=O)CNC(=O)[C@H](CC(C)C)NC(=O)[C@@H](N)CSSC[C@@H](C(=O)O)NC1=O [C L G V dL G K L C] (H-CLGV[dL]GKLC-OH; disulfide 1-9) and “C L G V L G K L C ATU-Y (CLGVLGKLC; C-terminal ATU-Y extension)” are within 1.5-fold of each other in “with ACA 6501 150 ug/mL” value: 230 µg/mL for the first, 300 µg/mL for the second.

First: CC(C)C[C@@H]1NC(=O)[C@H](CCCCN)NC(=O)CNC(=O)[C@H](CC(C)C)NC(=O)[C@@H](C(C)C)NC(=O)CNC(=O)[C@H](CC(C)C)NC(=O)[C@@H](N)CSSC[C@@H](C(=O)O)NC1=O [C L G dV L G K L C] (H-CLG[dV]LGKLC-OH; disulfide 1-9)
Second: CC(C)C[C@@H]1NC(=O)[C@H](CCCCN)NC(=O)CNC(=O)[C@H](c2ccccc2)NC(=O)[C@H](C(C)C)NC(=O)CNC(=O)[C@H](CC(C)C)NC(=O)[C@@H](N)CSSC[C@@H](C(=O)O)NC1=O [C L G Vp G G K L C] (H-CLGV[Phg]GKLC-OH; disulfide 1-9)
The “with ACA 6501 150 ug/mL” value of the first is 7.4-fold higher: 260 µg/mL for the first, 35 µg/mL for the second.

Going from CC(C)C[C@@H]1NC(=O)[C@H](C(C)C)NC(=O)CNC(=O)[C@H](CC(C)C)NC(=O)[C@@H](N)CSSC[C@@H](C(=O)O)NC(=O)[C@@H]2CCCN2C(=O)[C@H](CCCCN)NC(=O)CNC1=O [C L G V L G K P C] (H-CLGVLGKPC-OH; disulfide 1-9) to CC(C)C[C@@H]1NC(=O)[C@H](CCCCN)NC(=O)[C@@H](C)NC(=O)[C@H](CC(C)C)NC(=O)[C@H](C(C)C)NC(=O)CNC(=O)[C@H](CC(C)C)NC(=O)[C@@H](N)CSSC[C@@H](C(=O)O)NC1=O [C L G V L dA K L C] (H-CLGVL[dA]KLC-OH; disulfide 1-9), the “with ACA 6501 150 ug/mL” value falls from 550 µg/mL to 140 µg/mL (3.9-fold).

CC(C)C[C@@H]1NC(=O)[C@H](CCCCN)NC(=O)CNC(=O)[C@H](CC(C)C)NC(=O)[C@H](C(C)C)NC(=O)[C@@H]2CCCN2C(=O)[C@H](CC(C)C)NC(=O)[C@@H](N)CSSC[C@@H](C(=O)O)NC1=O [C L P V L G K L C] (H-CLPVLGKLC-OH; disulfide 1-9) and CC(C)C[C@@H]1NC(=O)[C@H](c2ccccc2)NC(=O)CNC(=O)[C@H](CC(C)C)NC(=O)[C@H](C(C)C)NC(=O)CNC(=O)[C@H](CC(C)C)NC(=O)[C@@H](N)CSSC[C@@H](C(=O)O)NC1=O [C L G V L Gp G L C] (H-CLGVLG[Phg]LC-OH; disulfide 1-9) are within 1.5-fold of each other in “with ACA 6501 150 ug/mL” value: 340 µg/mL for the first, 230 µg/mL for the second.

First: CC(C)C[C@@H]1NC(=O)[C@H](CCCCN)NC(=O)CNC(=O)[C@H](CC(C)C)NC(=O)[C@H](C(C)C)NC(=O)CNC(=O)[C@H](c2ccccc2)NC(=O)[C@@H](N)CSSC[C@@H](C(=O)O)NC1=O [C pG G V L G K L C] (H-C[Phg]GVLGKLC-OH; disulfide 1-9)
Second: CC(C)C[C@@H]1NC(=O)[C@H](CCCCN)NC(=O)[C@H](c2ccccc2)NC(=O)[C@H](CC(C)C)NC(=O)[C@H](C(C)C)NC(=O)CNC(=O)[C@H](CC(C)C)NC(=O)[C@@H](N)CSSC[C@@H](C(=O)O)NC1=O [C L G V Lp G K L C] (H-CLGVL[Phg]KLC-OH; disulfide 1-9)
The “with ACA 6501 150 ug/mL” value of the first is 4.3-fold higher: 130 µg/mL for the first, 30 µg/mL for the second.

CC(C)C[C@@H]1NC(=O)[C@H](C(C)C)NC(=O)CNC(=O)[C@H](CC(C)C)NC(=O)[C@@H](N)CSSC[C@@H](C(=O)O)NC(=O)[C@H](CC(C)C)NC(=O)C(C)(C)NC(=O)CNC1=O [C L G V L G aiB L C] (H-CLGVLG[Aib]LC-OH; disulfide 1-9) and CC(C)C[C@@H]1NC(=O)[C@H](CCCCN)NC(=O)CNC(=O)[C@H](CC(C)C)NC(=O)[C@H](C(C)C)NC(=O)CNC(=O)C(C)(C)NC(=O)[C@@H](N)CSSC[C@@H](C(=O)O)NC1=O [C aiB G V L G K L C] (H-C[Aib]GVLGKLC-OH; disulfide 1-9) are within 1.5-fold of each other in “with ACA 6501 150 ug/mL” value: 460 µg/mL for the first, 370 µg/mL for the second.

CC(C)C[C@@H]1NC(=O)[C@H](CCCCN)NC(=O)CNC(=O)[C@H](CC(C)C)NC(=O)[C@H](C(C)C)NC(=O)CNC(=O)CNC(=O)[C@@H](N)CSSC[C@@H](C(=O)O)NC1=O [C G G V L G K L C] (H-CGGVLGKLC-OH; disulfide 1-9) and CC(C)C[C@@H]1NC(=O)[C@H](CCCCN)NC(=O)CNC(=O)[C@H](CC(C)C)NC(=O)[C@H](C(C)C)N(C)C(=O)CNC(=O)[C@H](CC(C)C)NC(=O)[C@@H](N)CSSC[C@@H](C(=O)O)NC1=O [C L G nV L G K L C] (H-CLG[NMeV]LGKLC-OH; disulfide 1-9) are within 1.5-fold of each other in “with ACA 6501 150 ug/mL” value: 310 µg/mL for the first, 220 µg/mL for the second.

CC(C)C[C@@H]1NC(=O)[C@H](CCCCN)NC(=O)CNC(=O)[C@H](CC(C)C)NC(=O)[C@H](C(C)C)NC(=O)[C@H](c2ccccc2)NC(=O)[C@H](CC(C)C)NC(=O)[C@@H](N)CSSC[C@@H](C(=O)O)NC1=O [C L pG V L G K L C] (H-CL[Phg]VLGKLC-OH; disulfide 1-9) was tested, and the “with ACA 6501 150 ug/mL” value was 70 µg/mL.

For CLGVLGGLC [C L G V L G G L C], the “with ACA 6501 150 ug/mL” value was “inf”.
CLGGLGKLC [C L G G L G K L C] was tested, and the “with ACA 6501 150 ug/mL” value was “inf”.
In the case of C L G V aiB G K L C, the “with ACA 6501 150 ug/mL” value is reported as “inf”.

Source: patent US20040009904A1, “APL immunoreactive peptides, conjugates thereof and methods of treatment for aPL antibody-mediated pathologies” (priority 1995, published 2004)
